From US20260092071A1, “COMPOUNDS AND COMPOSITIONS AS SMARCA2/4 DEGRADERS AND USES THEREOF” (REGENTS OF THE UNIVERSITY OF MICHIGAN, priority 2022, published 2026)

How the values were obtained:
SMARCA4 = SMARCA4 (Homo sapiens, UniProt P51532); assay: HiBit assay in engineered HT1080 CRISPR knock-in cell, 6 hrs (B series), SMARCA4; type: cell-based; settings: 6 hrs incubation; for DC50 / SMARC A4 HT1080 HiBit Dmax(%): HT1080 CRISPR knock-in cells; for DC50: read-out: SMARC A4 HT1080 HiBit DC50; for Dmax: HT-1080, HT1080 CRISPR knock-in cells, read-out: SMARC A4 HT1080 HiBit Dmax(%)
Summary of the method: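 Engineered HT1080 knock-in cells, 2000 cells/well, 6 hrs compound exposure, 37° C/5% CO2, 0.1% DMSO final. Lytic detection: LgBiT 1:100 plus HiBiT substrate 1:50 in lytic buffer, 10 min shake at RT, luminescence read.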

SMARCA2 = SMARCA2 (Homo sapiens, UniProt P51531); assay: HiBit assay in engineered HT1080 CRISPR knock-in cell, 6 hrs (B series), SMARCA2; type: cell-based; settings: 6 hrs incubation; for DC50 / SMARC A2 HT1080 HiBit Dmax (%): HT1080 CRISPR knock-in cells; for DC50: read-out: SMARC A2 HT1080 HiBit DC50; for Dmax: HT-1080, HT1080 CRISPR knock-in cells, read-out: SMARC A2 HT1080 HiBit Dmax (%)
Summary of the method: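 HT1080 CRISPR knock-in cells carrying the HiBiT tag were seeded onto compounds (final DMSO 0.1%) and incubated 6 hrs at 37° C, 5% CO2. Remaining tagged protein was detected by lytic HiBiT luminescence after adding LgBiT protein and substrate, with LgBiT-free wells serving as negative control.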

SMARCA4, sequence (P51532 whole entry): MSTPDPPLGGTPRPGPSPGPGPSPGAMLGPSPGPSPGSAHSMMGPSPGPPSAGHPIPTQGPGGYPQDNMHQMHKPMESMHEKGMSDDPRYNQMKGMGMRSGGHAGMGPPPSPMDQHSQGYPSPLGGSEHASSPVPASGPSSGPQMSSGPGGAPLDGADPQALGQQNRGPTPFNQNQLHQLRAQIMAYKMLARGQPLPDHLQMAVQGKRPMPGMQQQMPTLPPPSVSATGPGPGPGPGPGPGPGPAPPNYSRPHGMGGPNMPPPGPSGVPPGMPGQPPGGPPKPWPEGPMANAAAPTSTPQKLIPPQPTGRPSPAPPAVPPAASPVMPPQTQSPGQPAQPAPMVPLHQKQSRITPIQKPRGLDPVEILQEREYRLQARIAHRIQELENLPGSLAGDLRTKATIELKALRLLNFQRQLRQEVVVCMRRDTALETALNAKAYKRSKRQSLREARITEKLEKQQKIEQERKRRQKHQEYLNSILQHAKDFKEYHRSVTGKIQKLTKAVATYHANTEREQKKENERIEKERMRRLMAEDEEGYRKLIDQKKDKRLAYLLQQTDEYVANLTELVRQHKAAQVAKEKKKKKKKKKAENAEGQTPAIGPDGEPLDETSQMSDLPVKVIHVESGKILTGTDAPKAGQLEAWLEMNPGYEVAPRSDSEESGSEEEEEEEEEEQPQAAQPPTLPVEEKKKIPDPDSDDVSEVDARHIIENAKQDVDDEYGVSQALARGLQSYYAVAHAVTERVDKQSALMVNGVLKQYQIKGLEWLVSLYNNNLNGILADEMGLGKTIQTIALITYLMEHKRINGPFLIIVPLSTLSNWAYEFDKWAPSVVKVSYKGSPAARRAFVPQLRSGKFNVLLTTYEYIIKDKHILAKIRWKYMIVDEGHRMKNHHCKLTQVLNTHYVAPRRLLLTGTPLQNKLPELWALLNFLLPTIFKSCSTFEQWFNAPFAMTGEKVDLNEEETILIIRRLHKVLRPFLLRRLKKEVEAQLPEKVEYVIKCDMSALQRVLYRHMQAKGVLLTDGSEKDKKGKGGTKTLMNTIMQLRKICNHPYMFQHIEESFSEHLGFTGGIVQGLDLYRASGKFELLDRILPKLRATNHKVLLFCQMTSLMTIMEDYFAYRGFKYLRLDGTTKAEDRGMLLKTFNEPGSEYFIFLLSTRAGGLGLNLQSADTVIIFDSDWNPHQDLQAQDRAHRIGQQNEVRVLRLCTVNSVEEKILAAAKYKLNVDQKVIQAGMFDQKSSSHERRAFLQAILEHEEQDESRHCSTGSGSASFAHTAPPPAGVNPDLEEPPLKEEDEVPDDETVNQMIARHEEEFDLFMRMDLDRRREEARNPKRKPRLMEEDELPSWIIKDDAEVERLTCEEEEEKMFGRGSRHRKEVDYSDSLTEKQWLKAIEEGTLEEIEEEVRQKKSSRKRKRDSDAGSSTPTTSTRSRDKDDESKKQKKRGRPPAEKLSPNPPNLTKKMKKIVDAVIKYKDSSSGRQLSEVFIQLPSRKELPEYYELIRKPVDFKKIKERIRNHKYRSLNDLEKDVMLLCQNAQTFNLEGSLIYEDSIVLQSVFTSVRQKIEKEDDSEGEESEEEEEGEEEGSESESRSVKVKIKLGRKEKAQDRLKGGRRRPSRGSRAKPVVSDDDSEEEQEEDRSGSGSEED
SMARCA2, sequence (P51531 whole entry): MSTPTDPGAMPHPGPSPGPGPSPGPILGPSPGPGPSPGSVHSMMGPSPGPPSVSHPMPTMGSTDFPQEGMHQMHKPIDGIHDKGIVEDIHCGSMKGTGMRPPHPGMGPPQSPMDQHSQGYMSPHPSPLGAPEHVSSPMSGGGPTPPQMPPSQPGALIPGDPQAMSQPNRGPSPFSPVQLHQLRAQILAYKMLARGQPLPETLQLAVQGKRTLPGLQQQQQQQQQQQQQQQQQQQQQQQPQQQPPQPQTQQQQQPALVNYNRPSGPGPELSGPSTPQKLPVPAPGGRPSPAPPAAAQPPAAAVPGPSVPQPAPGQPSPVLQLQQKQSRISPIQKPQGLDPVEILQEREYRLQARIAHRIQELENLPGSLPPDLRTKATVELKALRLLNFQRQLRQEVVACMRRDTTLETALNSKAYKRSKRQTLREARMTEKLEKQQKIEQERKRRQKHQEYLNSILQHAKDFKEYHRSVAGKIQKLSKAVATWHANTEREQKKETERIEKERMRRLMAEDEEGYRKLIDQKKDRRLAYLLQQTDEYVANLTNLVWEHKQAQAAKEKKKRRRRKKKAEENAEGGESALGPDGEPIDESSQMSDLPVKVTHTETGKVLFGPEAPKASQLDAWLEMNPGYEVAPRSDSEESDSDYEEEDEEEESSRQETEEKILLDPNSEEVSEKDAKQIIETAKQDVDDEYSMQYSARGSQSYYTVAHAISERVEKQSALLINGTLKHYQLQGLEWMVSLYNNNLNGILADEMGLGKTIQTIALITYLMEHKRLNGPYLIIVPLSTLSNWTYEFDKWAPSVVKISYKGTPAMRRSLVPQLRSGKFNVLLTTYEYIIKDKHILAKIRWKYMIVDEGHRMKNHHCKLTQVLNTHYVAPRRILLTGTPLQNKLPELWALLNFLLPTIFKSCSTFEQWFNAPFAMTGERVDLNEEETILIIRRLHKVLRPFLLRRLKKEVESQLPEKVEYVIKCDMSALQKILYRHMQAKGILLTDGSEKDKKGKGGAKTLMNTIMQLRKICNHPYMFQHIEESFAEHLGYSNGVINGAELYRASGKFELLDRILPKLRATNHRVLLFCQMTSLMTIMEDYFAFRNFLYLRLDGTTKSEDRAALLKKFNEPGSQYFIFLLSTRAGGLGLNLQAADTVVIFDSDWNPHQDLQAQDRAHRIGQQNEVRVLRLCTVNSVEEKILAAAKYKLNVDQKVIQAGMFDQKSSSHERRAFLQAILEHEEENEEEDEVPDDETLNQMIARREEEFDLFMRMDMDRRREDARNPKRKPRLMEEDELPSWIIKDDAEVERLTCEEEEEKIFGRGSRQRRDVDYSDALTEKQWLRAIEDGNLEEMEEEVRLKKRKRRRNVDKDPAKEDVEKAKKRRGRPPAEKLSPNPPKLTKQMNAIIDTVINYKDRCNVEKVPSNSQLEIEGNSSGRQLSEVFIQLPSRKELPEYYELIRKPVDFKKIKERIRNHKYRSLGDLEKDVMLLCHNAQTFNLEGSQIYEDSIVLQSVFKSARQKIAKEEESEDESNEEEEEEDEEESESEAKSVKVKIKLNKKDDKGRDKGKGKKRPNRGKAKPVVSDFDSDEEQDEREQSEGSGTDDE

Cc1nc(C)c(-c2ccc([C@H](C)NC(=O)[C@@H]3C[C@@H](O)CN3C(=O)[C@@H](n3cc([C@H]4CC[C@H](CN5CCN(c6ccc7c(c6)-n6c(nc(=O)c8c(Cl)cccc86)C7(C)C)CC5)CC4)nn3)C(C)(C)C)cc2)s1 [Compound B133, (2S,4R)-1-((S)-2-(4-((1r,4S)-4-((4-(4-chloro-7,7-dimethyl-5-oxo-5,7-dihydroindolo[1,2-a]quinazolin-10-yl)piperazin-1-yl)methyl)cyclohexyl)-1H-1,2,3-triazol-1-yl)-3,3-dimethylbutanoyl)-N-((S)-1-(4-(2,4-dimethylthiazol-5-yl)phenyl)ethyl)-4-hydroxypyrrolidine-2-carboxamide]
DC50 (SMARCA4): < 0.1 µM | Dmax (SMARCA4): 70 to 90% | DC50 (SMARCA2): < 0.1 µM | Dmax (SMARCA2): > 90%

Cc1ncsc1-c1ccc([C@H](C)NC(=O)[C@@H]2C[C@@H](O)CN2C(=O)[C@@H](c2cc(OCC3(CN4CCC(c5ccc6c(c5)C(C)(C)c5nc(=O)c7c(Cl)cccc7n5-6)CC4)CC3)no2)C(C)C)cc1 [Compound B82, (2S,4R)-1-((R)-2-(3-((1-((4-(4-chloro-7,7-dimethyl-5-oxo-5,7-dihydroindolo[1,2-a]quinazolin-9-yl)piperidin-1-yl)methyl)cyclopropyl)methoxy)isoxazol-5-yl)-3-methylbutanoyl)-4-hydroxy-N-((S)-1-(4-(4-methylthiazol-5-yl)phenyl)ethyl)pyrrolidine-2-carboxamide]
DC50 (SMARCA4): < 0.1 µM | Dmax (SMARCA4): 50 to 69% | DC50 (SMARCA2): < 0.1 µM | Dmax (SMARCA2): 70 to 90%

Cc1cc(C(C(=O)N2C[C@H](O)C[C@H]2C(=O)N[C@@H](CCN2CCC(c3cccc4c3C(C)(C)c3nc(=O)c5c(Cl)cccc5n3-4)CC2)c2ccc(-c3scnc3C)cc2)C(C)C)on1 (stereo partly drawn) [Compound B166, (2S,4R)-N-((S)-3-(4-(4-chloro-7,7-dimethyl-5-oxo-5,7-dihydroindolo[1,2-a]quinazolin-8-yl)piperidin-1-yl)-1-(4-(4-methylthiazol-5-yl)phenyl)propyl)-4-hydroxy-1-(3-methyl-2-(3-methylisoxazol-5-yl)butanoyl)pyrrolidine-2-carboxamide]
SMARC A4 HT1080 HiBit Dmax(%) (SMARCA4): B (B (70-90% degradation)) | DC50 (SMARCA4): 0.1 to 0.5 µM | SMARC A2 HT1080 HiBit Dmax (%) (SMARCA2): B (B (70-90% degradation)) | DC50 (SMARCA2): 0.1 to 0.5 µM

Cc1ncsc1-c1ccc([C@H](C)NC(=O)[C@@H]2C[C@@H](O)CN2C(=O)[C@@H](NC(=O)CC2CCC(N3CCC(c4ccc5c(c4)-n4c(nc(=O)c6c(Cl)cccc64)C5(C)C)CC3)CC2)C(C)(C)C)cc1 (stereo partly drawn) [Compound B63, (2S,4R)-1-((S)-2-(2-(4-(4-(4-chloro-7,7-dimethyl-5-oxo-5,7-dihydroindolo[1,2-a]quinazolin-10-yl)piperidin-1-yl)cyclohexyl)acetamido)-3,3-dimethylbutanoyl)-4-hydroxy-N-((S)-1-(4-(4-methylthiazol-5-yl)phenyl)ethyl)pyrrolidine-2-carboxamide]
DC50 (SMARCA4): 0.1 to 0.5 µM | Dmax (SMARCA4): < 50% | DC50 (SMARCA2): < 0.1 µM | Dmax (SMARCA2): > 90%

Cc1cc(C(C(=O)N2C[C@H](O)C[C@H]2C(=O)N[C@@H](CN2CCC(c3cccc4c3C(C)(C)c3nc(=O)c5c(Cl)cccc5n3-4)CC2)c2ccc(-c3scnc3C)cc2)C(C)C)on1 (stereo partly drawn) [Compound B153, (2S,4R)-N-((R)-2-(4-(4-chloro-7,7-dimethyl-5-oxo-5,7-dihydroindolo[1,2-a]quinazolin-8-yl)piperidin-1-yl)-1-(4-(4-methylthiazol-5-yl)phenyl)ethyl)-4-hydroxy-1-(3-methyl-2-(3-methylisoxazol-5-yl)butanoyl)pyrrolidine-2-carboxamide]
DC50 (SMARCA4): < 0.1 µM | Dmax (SMARCA4): 70 to 90% | DC50 (SMARCA2): < 0.1 µM | Dmax (SMARCA2): 70 to 90%

C[C@H](NC(=O)[C@@H]1C[C@@H](O)CN1C(=O)[C@@H](n1cc([C@H]2CC[C@H](CN3CCN(c4ccc5c(c4)-n4c(nc(=O)c6c(Cl)cccc64)C5(C)C)CC3)CC2)nn1)C(C)(C)C)c1ccc(-c2ccnn2C)cc1 [Compound B125, (2S,4R)-1-((S)-2-(4-((1r,4S)-4-((4-(4-chloro-7,7-dimethyl-5-oxo-5,7-dihydroindolo[1,2-a]quinazolin-10-yl)piperazin-1-yl)methyl)cyclohexyl)-1H-1,2,3-triazol-1-yl)-3,3-dimethylbutanoyl)-4-hydroxy-N-((S)-1-(4-(1-methyl-1H-pyrazol-5-yl)phenyl)ethyl)pyrrolidine-2-carboxamide]
DC50 (SMARCA4): < 0.1 µM | Dmax (SMARCA4): 70 to 90% | DC50 (SMARCA2): < 0.1 µM | Dmax (SMARCA2): > 90%

Cc1ncsc1-c1ccc([C@H](CN2CCOCC2)NC(=O)[C@@H]2C[C@@H](O)CN2C(=O)C(c2cc(N3CCC(CN4CCC(c5ccc6c(c5)-n5c(nc(=O)c7c(Cl)cccc75)C6(C)C)CC4)CC3)no2)C(C)C)cc1 (stereo partly drawn) [Compound B115, (2S,4R)-1-(2-(3-(4-((4-(4-chloro-7,7-dimethyl-5-oxo-5,7-dihydroindolo[1,2-a]quinazolin-10-yl)piperidin-1-yl)methyl)piperidin-1-yl)isoxazol-5-yl)-3-methylbutanoyl)-4-hydroxy-N-((R)-1-(4-(4-methylthiazol-5-yl)phenyl)-2-morpholinoethyl)pyrrolidine-2-carboxamide]
DC50 (SMARCA4): < 0.1 µM | Dmax (SMARCA4): 70 to 90% | DC50 (SMARCA2): < 0.1 µM | Dmax (SMARCA2): > 90%

Cc1nc(C)c(-c2ccc([C@H](C)NC(=O)[C@@H]3C[C@@H](O)CN3C(=O)[C@@H](n3cc([C@H]4CC[C@H](CN5CCC(c6ccc7c(c6)-n6c(nc(=O)c8c(Cl)cccc86)C7(C)C)CC5)CC4)nn3)C(C)(C)C)cc2)s1 [Compound B164, (2S,4R)-1-((S)-2-(4-((1r,4S)-4-((4-(4-chloro-7,7-dimethyl-5-oxo-5,7-dihydroindolo[1,2-a]quinazolin-10-yl)piperidin-1-yl)methyl)cyclohexyl)-1H-1,2,3-triazol-1-yl)-3,3-dimethylbutanoyl)-N-((S)-1-(4-(2,4-dimethylthiazol-5-yl)phenyl)ethyl)-4-hydroxypyrrolidine-2-carboxamide]
DC50 (SMARCA4): < 0.1 µM | Dmax (SMARCA4): 70 to 90% | DC50 (SMARCA2): < 0.1 µM | Dmax (SMARCA2): > 90%

Cc1ncsc1-c1ccc([C@H](C)NC(=O)[C@@H]2C[C@@H](O)CN2C(=O)[C@@H](NC(=O)CCCCN2CCC(c3ccc4c(c3)-n3c(nc(=O)c5c(Cl)cccc53)C4(C)C)CC2)C(C)(C)C)cc1 [Compound B50, (2S,4R)-1-((S)-2-(5-(4-(4-chloro-7,7-dimethyl-5-oxo-5,7-dihydroindolo[1,2-a]quinazolin-10-yl)piperidin-1-yl)pentanamido)-3,3-dimethylbutanoyl)-4-hydroxy-N-((S)-1-(4-(4-methylthiazol-5-yl)phenyl)ethyl)pyrrolidine-2-carboxamide]
DC50 (SMARCA4): > 1 µM | Dmax (SMARCA4): < 50% | DC50 (SMARCA2): 0.1 to 0.5 µM | Dmax (SMARCA2): 70 to 90%

Cc1ncsc1-c1ccc([C@H](C)NC(=O)[C@@H]2C[C@@H](O)CN2C(=O)[C@@H](NC(=O)c2cccc(CN3CCC(c4ccc5c(c4)C(C)(C)c4nc(=O)c6c(Cl)cccc6n4-5)CC3)c2)C(C)(C)C)cc1 [Compound B16, (2S,4R)-1-((S)-2-(3-((4-(4-chloro-7,7-dimethyl-5-oxo-5,7-dihydroindolo[1,2-a]quinazolin-9-yl)piperidin-1-yl)methyl)benzamido)-3,3-dimethylbutanoyl)-4-hydroxy-N—((S)-1-(4-(4-methylthiazol-5-yl)phenyl)ethyl)pyrrolidine-2-carboxamide]
DC50 (SMARCA4): < 0.1 µM | Dmax (SMARCA4): 70 to 90% | DC50 (SMARCA2): < 0.1 µM | Dmax (SMARCA2): > 90%

Cc1ncsc1-c1ccc([C@H](CN2CCOCC2)NC(=O)[C@@H]2C[C@@H](O)CN2C(=O)[C@@H](n2cc([C@H]3CC[C@H](CN4CCC(c5ccc6c(c5)-n5c(nc(=O)c7c(Br)cccc75)C6(C)C)CC4)CC3)nn2)C(C)(C)C)cc1 [Compound B105, (2S,4R)-1-((S)-2-(4-((1r,4S)-4-((4-(4-bromo-7,7-dimethyl-5-oxo-5,7-dihydroindolo[1,2-a]quinazolin-10-yl)piperidin-1-yl)methyl)cyclohexyl)-1H-1,2,3-triazol-1-yl)-3,3-dimethylbutanoyl)-4-hydroxy-N—((R)-1-(4-(4-methylthiazol-5-yl)phenyl)-2-morpholinoethyl)pyrrolidine-2-carboxamide]
DC50 (SMARCA4): 0.1 to 0.5 µM | Dmax (SMARCA4): 70 to 90% | DC50 (SMARCA2): < 0.1 µM | Dmax (SMARCA2): > 90%

Cc1ncsc1-c1ccc([C@H](C)NC(=O)[C@@H]2C[C@@H](O)CN2C(=O)[C@H](C(C)C)n2cc(C3CCC(c4cccc5c4C(C)(C)c4nc(=O)c6c(Cl)cccc6n4-5)CC3)nn2)cc1 (stereo partly drawn) [Compound B161, (2S,4R)-1-((S)-2-(4-(4-(4-chloro-7,7-dimethyl-5-oxo-5,7-dihydroindolo[1,2-a]quinazolin-8-yl)cyclohexyl)-1H-1,2,3-triazol-1-yl)-3-methylbutanoyl)-4-hydroxy-N-((S)-1-(4-(4-methylthiazol-5-yl)phenyl)ethyl)pyrrolidine-2-carboxamide]
SMARC A4 HT1080 HiBit Dmax(%) (SMARCA4): C (C (50-69% degradation)) | DC50 (SMARCA4): < 0.1 µM | SMARC A2 HT1080 HiBit Dmax (%) (SMARCA2): A (A (>90% degradation)) | DC50 (SMARCA2): < 0.1 µM
